Test system: YAP-TEAD
Test: TEAD inhibition, Hippo Pathway TEAD Reporter MCF-7 luciferase assay
Format: cell-based
Conditions: Homo sapiens, MCF7, 24 h, Hippo Pathway TEAD Reporter MCF-7 cells, luciferase activity after 24 h; read-out: IC50 of the test compounds on YAP-TEAD inhibition (Group)
Protocol: TEAD inhibition was assayed using Hippo Pathway TEAD Reporter—MCF-7 cell line (BPS Bioscience, Catalog #: 60618) which contains firefly luciferase gene under the control of TEAD responsive elements. In the cell line, YAP1 remains in the nucleus inducing constitutive expression of luciferase reporter. Amount of expressed luciferase was detected using ONE-Glo Luciferase Assay System (Promega) and measuring plates with Enspire Multimode Plate Reader (PerkinElmer).
Hippo Pathway TEAD Reporter—MCF-7 cells were plated on white/clear Poly-D-Lysine coated 384 plates (Corning #356660) at the density of 8500 cells/well. Next day test compounds (11 concentrations with 4 replicates) and DMSO control (0.1%) were added to the plate. After 24 h cells were lysed and luciferase activity was measured. The half maximal inhibitory concentration (IC50) of the test compounds on YAP-TEAD inhibition was determined.

Row | IC50 [nM] | SMILES
1 | 50 to 300 | COc1ccc(Oc2ccc(C(F)(F)F)nc2)cc1NC(=O)C1CCC(=O)N1 (stereo not drawn) [Compound 62, N-(2-Methoxy-5-((6-(trifluoromethyl)pyridin-3-yl)oxy)phenyl)-5-oxopyrrolidine-2-carboxamide]
2 | 50 to 300 | COc1ccc(Oc2ccc(C(F)(F)F)nc2)cc1NC(=O)C1CCC(=O)N1C (stereo not drawn) [Compound 63, N-(2-Methoxy-5-((6-(trifluoromethyl)pyridin-3-yl)oxy)phenyl)-1-methyl-5-oxopyrrolidine-2-carboxamide]
3 | 301 to 2000 | COc1ccc(/C=C/C2CCOCC2)cc1NC(=O)C1CCC(=O)N1C (stereo not drawn) [Compound 64, (E)-N-(2-Methoxy-5-(2-(tetrahydro-2H-pyran-4-yl)vinyl)phenyl)-1-methyl-5-oxopyrrolidine-2-carboxamide]
4 | 301 to 2000 | COc1ccc(/C=C/C2CCOCC2)cc1NC(=O)C1CCC(=O)N1 (stereo not drawn) [Compound 65, (E)-N-(2-Methoxy-5-(2-(tetrahydro-2H-pyran-4-yl)vinyl)phenyl)-5-oxo-pyrrolidine-2-carboxamide]
5 | < 50 | O=C1CCC(C(=O)Nc2cc(Oc3ccc(C(F)(F)F)cc3)cc3c2OCCO3)N1 (stereo not drawn) [Compound 66, 5-Oxo-N-(7-(4-(trifluoromethyl)phenoxy)-2,3-dihydrobenzo[b][1,4]dioxin-5-yl)pyrrolidine-2-carboxamide]
6 | < 50 | CN1C(=O)CCC1C(=O)Nc1cc(Oc2ccc(C(F)(F)F)cc2)cc2c1OCCO2 (stereo not drawn) [Compound 67, 1-Methyl-5-oxo-N-(7-(4-(trifluoromethyl)phenoxy)-2,3-dihydrobenzo[b][1,4]-dioxin-5-yl)pyrrolidine-2-carboxamide]
7 | < 50 | CCN1C(=O)CCC1C(=O)Nc1cc(Oc2ccc(C(F)(F)F)cc2)ccc1OC (stereo not drawn) [Compound 68, 1-Ethyl-N-(2-methoxy-5-(4-(trifluoromethyl)phenoxy)phenyl)-5-oxopyrrolidine-2-carboxamide]
8 | < 50 | COc1ccc(Oc2ccc(C(F)(F)F)cc2)cc1NC(=O)[C@H]1CCC(=O)N1C [Compound 69, (R)—N-(2-Methoxy-5-(4-(trifluoromethyl)phenoxy)phenyl)-1-methyl-5-oxo-pyrrolidine-2-carboxamide]
9 | < 50 | COc1ccc(Oc2ccc(C(F)(F)F)cc2)cc1NC(=O)[C@@H]1CCC(=O)N1C [Compound 70, (S)—N-(2-Methoxy-5-(4-(trifluoromethyl)phenoxy)phenyl)-1-methyl-5-oxo-pyrrolidine-2-carboxamide]
10 | 50 to 300 | COc1ccc(Oc2ccc(C(F)(F)F)cc2)cc1NC(=O)C1CS(=O)(=O)N1C (stereo not drawn) [Compound 71, N-(2-Methoxy-5-(4-(trifluoromethyl)phenoxy)phenyl)-2-methyl-1,2-thiazeti-dine-3-carboxamide 1,1-dioxide]
11 | 301 to 2000 | COc1ccc(Oc2cccc(C(F)(F)F)c2)cc1NC(=O)C1CS(=O)(=O)N1C (stereo not drawn) [Compound 72, N-(2-Methoxy-5-(3-(trifluoromethyl)phenoxy)phenyl)-2-methyl-1,2-thiaze-tidine-3-carboxamide 1,1-dioxide]
12 | 50 to 300 | COc1cc(F)c(COc2cccc(F)c2)cc1NC(=O)C1CCC(=O)N1 (stereo not drawn) [Compound 73, N-(4-Fluoro-5-((3-fluorophenoxy)methyl)-2-methoxyphenyl)-5-oxopyrrolidine-2-carboxamide]

Further lines, the compound ahead of its results:

Row | SMILES | IC50 [nM]
13 | COc1c(F)cc(COc2cccc(F)c2)cc1NC(=O)C1CCC(=O)N1 (stereo not drawn) [Compound 36, N-(3-Fluoro-5-((3-fluorophenoxy)methyl)-2-methoxyphenyl)-5-oxopyrrolidine-2-carboxamide] | 50 to 300
14 | CCN1C(=O)CCC1C(=O)Nc1cc(Oc2cccc(C(F)(F)F)c2)ccc1OC (stereo not drawn) [Compound 37, 1-Ethyl-N-(2-methoxy-5-(3-(trifluoromethyl)phenoxy)phenyl)-5-oxopyrrolidine-2-carboxamide] | 50 to 300
15 | COc1ccc(Oc2cccc(C(F)(F)F)c2)cc1NC(=O)C1CCC(=O)N1C(=O)C1CC1 (stereo not drawn) [Compound 38, 1-(Cyclopropanecarbonyl)-N-(2-methoxy-5-(3-(trifluoromethyl)phenoxy)-phenyl)-5-oxopyrrolidine-2-carboxamide] | 301 to 2000
16 | COc1cc(F)c(Oc2cccc(C(F)(F)F)c2)cc1NC(=O)C1CCC(=O)N1C(C)=O (stereo not drawn) [Compound 39, 1-Acetyl-N-(4-fluoro-2-methoxy-5-(3-(trifluoromethyl)phenoxy)phenyl)-5-oxopyrrolidine-2-carboxamide] | 50 to 300
17 | CC(=O)N1C(=O)CCC1C(=O)Nc1cc(Oc2cccc(C(F)(F)F)c2)ccc1F (stereo not drawn) [Compound 40, 1-Acetyl-N-(2-fluoro-5-(3-(trifluoromethyl)phenoxy)phenyl)-5-oxopyrrolidine-2-carboxamide] | 301 to 2000
18 | CN1C(=O)CCC1C(=O)Nc1cc(Oc2cccc(C(F)(F)F)c2)ccc1F (stereo not drawn) [Compound 41, N-(2-Fluoro-5-(3-(trifluoromethyl)phenoxy)phenyl)-1-methyl-5-oxopyrrolidine-2-carboxamide] | 301 to 2000
19 | COc1ccc(Oc2ccc(F)cc2F)cc1NC(=O)C1CCC(=O)N1 (stereo not drawn) [Compound 42, N-(5-(2,4-Difluorophenoxy)-2-methoxyphenyl)-5-oxopyrrolidine-2-carboxamide] | 50 to 300
20 | COc1ccc(Oc2ccc(F)cc2F)cc1NC(=O)C1CCC(=O)N1C (stereo not drawn) [Compound 43, N-(5-(2,4-Difluorophenoxy)-2-methoxyphenyl)-1-methyl-5-oxopyrrolidine-2-carboxamide] | 50 to 300
21 | COc1ccc(Oc2ccc(F)cc2F)cc1NC(=O)C1CCC(=O)N1C(C)=O (stereo not drawn) [Compound 44, 1-Acetyl-N-(5-(2,4-difluorophenoxy)-2-methoxyphenyl)-5-oxopyrrolidine-2-carboxamide] | 301 to 2000
22 | COc1ccc(Oc2ccc(C(F)(F)F)cc2)cc1NC(=O)C1CCC(=O)N1C(C)=O (stereo not drawn) [Compound 47, 1-Acetyl-N-(2-methoxy-5-(4-(trifluoromethyl)phenoxy)phenyl)-5-oxo-pyrrolidine-2-carboxamide] | < 50
23 | COc1ccc(Oc2ccc(C(F)(F)F)cc2)cc1NC(=O)C1CCC(=O)N1C (stereo not drawn) [Compound 48, N-(2-Methoxy-5-(4-(trifluoromethyl)phenoxy)phenyl)-1-methyl-5-oxopyrrolidi-ne-2-carboxamide] | < 50
24 | COc1ccc(COc2cccc(C(F)(F)F)c2)cc1NC(=O)C1CCC(=O)N1 (stereo not drawn) [Compound 49, N-(2-Methoxy-5-((3-(trifluoromethyl)phenoxy)methyl)phenyl)-5-oxopyrrolidine-2-carboxamide] | 50 to 300
25 | COc1ccc(COc2cccc(C(F)(F)F)c2)cc1NC(=O)C1CCC(=O)N1C(C)=O (stereo not drawn) [Compound 50, 1-Acetyl-N-(2-methoxy-5-((3-(trifluoromethyl)phenoxy)methyl)phenyl)-5-oxopyrrolidine-2-carboxamide] | 301 to 2000
26 | COc1ccc(OCc2cccc(C(F)(F)F)c2)cc1NC(=O)C1CCC(=O)N1C(C)=O (stereo not drawn) [Compound 51, 1-Acetyl-N-(2-methoxy-5-((3-(trifluoromethyl)benzyl)oxy)phenyl)-5-oxo-pyrrolidine-2-carboxamide] | 301 to 2000
27 | COc1ccc(OCc2cccc(C(F)(F)F)c2)cc1NC(=O)C1CCC(=O)N1 (stereo not drawn) [Compound 52, N-(2-Methoxy-5-((3-(trifluoromethyl)benzyl)oxy)phenyl)-5-oxopyrrolidine-2-carboxamide] | 50 to 300
28 | COc1ccc(OCc2cccc(C(F)(F)F)c2)cc1NC(=O)C1CCC(=O)N1C (stereo not drawn) [Compound 53, N-(2-Methoxy-5-((3-(trifluoromethyl)benzyl)oxy)phenyl)-1-methyl-5-oxo-pyrrolidine-2-carboxamide] | 50 to 300
29 | O=C(Nc1cc(Oc2cccc(C(F)(F)F)c2)cc2c1OCCO2)C1CCS(=O)(=O)N1 (stereo not drawn) [Compound 54, N-(7-(3-(Trifluoromethyl)phenoxy)-2,3-dihydrobenzo[b][1,4]dioxin-5-yl)-isothiazolidine-3-carboxamide 1,1-dioxide] | 301 to 2000
30 | O=C1CCC(C(=O)Nc2cc(Oc3cccc(C(F)(F)F)c3)cc3c2OCCO3)N1 (stereo not drawn) [Compound 55, 5-Oxo-N-(7-(3-(trifluoromethyl)phenoxy)-2,3-dihydrobenzo[b][1,4]dioxin-5-yl)pyrrolidine-2-carboxamide] | 50 to 300
31 | CC(=O)N1C(=O)CCC1C(=O)Nc1cc(Oc2cccc(C(F)(F)F)c2)cc2c1OCCO2 (stereo not drawn) [Compound 56, 1-Acetyl-5-oxo-N-(7-(3-(trifluoromethyl)phenoxy)-2,3-dihydrobenzo[b][1,4]-dioxin-5-yl)pyrrolidine-2-carboxamide] | 50 to 300
32 | O=C1CCC(C(=O)Nc2cc(COc3cccc(F)c3)cc3c2OCCO3)N1 (stereo not drawn) [Compound 57, N-(7-((3-Fluorophenoxy)methyl)-2,3-dihydrobenzo[b][1,4]dioxin-5-yl)-5-oxopyrrolidine-2-carboxamide] | 50 to 300
33 | CN1C(=O)CCC1C(=O)Nc1cc(COc2cccc(F)c2)cc2c1OCCO2 (stereo not drawn) [Compound 58, N-(7-((3-Fluorophenoxy)methyl)-2,3-dihydrobenzo[b][1,4]dioxin-5-yl)-1-methyl-5-oxopyrrolidine-2-carboxamide] | 301 to 2000
34 | COc1ccc(Oc2ccc(F)c(F)c2)cc1NC(=O)C1CCC(=O)N1 (stereo not drawn) [Compound 59, N-(5-(3,4-Difluorophenoxy)-2-methoxyphenyl)-5-oxopyrrolidine-2-carboxamide] | < 50
35 | COc1ccc(Oc2ccc(F)c(F)c2)cc1NC(=O)C1CCC(=O)N1C (stereo not drawn) [Compound 60, N-(5-(3,4-Difluorophenoxy)-2-methoxyphenyl)-1-methyl-5-oxopyrrolidine-2-carboxamide] | 50 to 300
36 | Cc1c(Oc2cccc(C(F)(F)F)c2)cc(NC(=O)C2CCC(=O)N2)c2c1OCCO2 (stereo not drawn) [Compound 61, N-(8-Methyl-7-(3-(trifluoromethyl)phenoxy)-2,3-dihydrobenzo[b][1,4]dioxin-5-yl)-5-oxopyrrolidine-2-carboxamide] | 301 to 2000

Reference: patent US20240246908A1 (ORION CORPORATION, priority 2021, published 2024)
